Measured values published in US20200255828A1, “METHODS AND COMPOSITIONS FOR ALTERING FUNCTION AND STRUCTURE OF CHROMATIN LOOPS AND/OR DOMAINS” (THE BROAD INSTITUTE, INC., priority 2017, published 2020).

What was measured:
Type in all cases: cell-based, human
HCT-116-CMV-OsTIR1 cells = assay: PRO-Seq control for the auxin hormone itself; details: no mAID tag on any protein
Description: To measure changes in transcription resulting from cohesin loss, Applicants performed precision run-on sequencing (PRO-Seq) (Jonkers and Lis, 2015), a variant of global run-on sequencing (GRO-Seq), using a single biotinylated nucleotide (biotin-11-CTP) as previously described (Engreitz et al., 2016). Applicants made one modifications to the protocol: at the end of each biotin enrichment, Applicants eluted biotinylated RNAs from the streptavidin-coated magnetic beads by heating beads in 25 μl of 20 mM Tris-HCl pH 7.5, 10 mM EDTA, 2% N-lauroylsarcosine at 95° C. for 5 minutes, followed by a magnetic-bead nucleic acid purification with 20 μl of MyONE SILANE beads. During the nuclei preparation step, Applicants processed pairs of RAD21-mAC cells with and without auxin treatment in parallel. In addition, Applicants performed PRO-Seq on HCT-116 CMV-OsTIR1 cells, the parental cell line of RAD21-mAC containing the OsTIR1 gene integrated at the AAVS1 locus and no mAID tags integrated on any protein. By performing PRO-Seq on CMV-OsTIR1 cells with and without auxin treatment, Applicants could control for transcriptional effects of the auxin treatment itself on HCT-116 cells, as well as any consequences of tagging the RAD21 protein. […]

HCT-116 RAD21-mAC cells = assay: APA for cohesin-independent links after cohesin degradation with ATP depletion; details: auxin 6 hours, without any additional treatment
Excerpt: Using the degron system, Applicants can directly measure the influence of cellular processes on loop formation (Vian et al, 2018). […] Applicants also tested interchromasomal cohesin-independent links requirement for ATP after cohesin degradation and observed that depletion of ATP strengthens the interactions between superenhancers (FIG. 23).

cohesin complex = assay: ChIP-Seq for RAD21 and SMC1 (cohesin binding to chromatin) with and without auxin
Excerpt: Applicants employed an auxin-inducible degron (AID) (Natsume et al., 2016) to destroy RAD21, a core component of the cohesin complex. In this system, constitutive expression of the auxin-activated ubiquitin ligase TIR1 leads, in the presence of auxin, to rapid degradation of proteins tagged with an AID domain. Applicants used this system in HCT-116, a human colorectal carcinoma cell line. This cell line had been previously modified by (Natsume et al., 2016) so that both RAD21 alleles were tagged with an AID domain and a fluorescent mClover (“RAD21-mAC”) (FIG. 1A). Applicants confirmed that RAD21-mAC was efficiently degraded after 6 hours of auxin treatment using fluorescence microscopy and ChIP (FIG. 1B, 8, see Methods), and that cohesin could no longer associate with DNA using ChIP-Seq with antibodies for SMC1, a different cohesin subunit (FIG. 1C, D).
ChIP-Seq for H3K27Ac, H3K4me1, H3K4me3, H3K36me3, H3K27me3, H3K9me3, H4K16Ac, H4K20me3, H3K79me2, and H2.AZ was performed using a native ChIP-Seq protocol. Chromatin from untreated HCT-116 RAD21-mAC cells or cells treated for 6 hours with 500 uM IAA was digested with Mnase (Sigma) in digestion buffer (50 mM Tris-HCl, pH7.6, 1 mM CaCl2), 0.2% Triton X-100, butyrate 5 mM) for 5′ at 37° C. and dialyzed against RIPA buffer for 2 hrs at 4° C. Five microgram of respective antibody was incubated with 40 μl of Dynabeads Protein A (or G) for 40 min at room temperature. Antibody-bound beads were added to 500 μl of sonicated or Mnase-digested chromatin, incubated at 4° C. overnight, and washed twice with RIPA buffer, twice with RIPA buffer containing 0.3 M NaCl, twice with LiCl buffer (0.25 M LiCl, 0.5% Igepal-630, 0.5% sodium deoxycholate), once with TE (pH 8.0) plus 0.2% Triton X-100, and once with TE (pH 8.0). ChIP DNA was purified by phenol-chloroform extraction followed by ethanol precipitation. Libraries were prepped for Illumina sequencing and 50 bp single-end reads were sequenced on a HiSeq2000 or 2500 (Illumina). Applicants also performed ChIP-Seq for RAD21 and CTCF following the same protocol as above, except that cells were fixed with 1% formaldehyde for 10 minutes at 37° C. and fixation was quenched by the addition of glycine to a final concentration of 125 mM for 10 minutes. The fixed cells were sonicated using a Branson sonifier at amplitude 35%, 12 cycles of 20 seconds of sonication and 30 seconds of pause. Antibody was added to the sonicated chromatin as above and the samples were further processed as above.
Applicants also performed ChIP-Seq for SMC1 and an additional replicate for CTCF following the protocol outlined by the ENCODE consortium (2012).
All ChIP-Seq data was aligned to hg19 with BWA […] (Li and Durbin, 2010), deduplicated using PicardTools, and analyzed with MACS 2.0 (Liu, 2014). All data was normalized against the corresponding input control using the ‘-c’ option of MACS 2.0. ChIP-Seq peaks were called using the ‘callpeak’ function of MACS 2.0 with default parameters. For H3K4me3 and H3K4me1, Applicants additionally used the ‘broad’ option of MACS 2.0 and merged close by peaks to identify broad peaks. […] Finally, in order to annotate broad-source domains, Applicants utilized RSEG (Song and Smith, 2011) using the following flags: ‘-b 25000’, ‘-i 20’, ‘-mode 2’.
Applicants also analyzed the RAD21 and SMC1 signal at all ChIP-Seq peaks called in our data from untreated cells using MACS 2.0. […]

[1] = average at ChIP-Seq peaks called in untreated cells

O=C(O)Cc1c[nH]c2ccccc12 [auxin, indole-3-acetic acid]
number of genes detected as significantly different before vs after auxin treatment (HCT-116-CMV-OsTIR1 cells): 105
number of genes significantly different with at least a 1.3-fold change (HCT-116-CMV-OsTIR1 cells): 56
APA score for cohesin-independent links (HCT-116 RAD21-mAC cells): 8.28
cohesin peaks (merged SMC1 and RAD21 ChIP-Seq calls) lost after auxin treatment (cohesin complex; 6 hours auxin): 97%
reduction in binding strength of RAD21 (cohesin complex; [1]): 81%
reduction in binding strength of SMC1 (cohesin complex; [1]): 75%
RAD21 mean enrichment in treated cells (cohesin complex; untreated 12.58): 2.39
SMC1 mean enrichment in treated cells (cohesin complex; untreated 16.23): 4.00
